Values of other authors, collected in patent US11338162B2 (priority 2013, dated 2022).

How the values were obtained:
[1] = tested on: Daphnia magna (Water flea); settings: in vivo
[2] = tested on: Leuciscus idus (Golden orfe); settings: in vivo
Lepomis macrochirus = settings: in vivo
rat = settings: in vivo
rabbit = settings: in vivo, topical or ocular
Pseudomonas putida = settings: 16 h
[3] = tested on: Desmodesmus subspicatus (green algae); settings: 24 h

SMILES: CCCCOCCOCCO [DGME, diethylene glycol monobutyl ether]
- Toxicity to daphnia and other aquatic invertebrates LC50 - Daphnia magna (Water flea) [1]: 1,950 mg/l
- Toxicity to fish LC50 [2]: >1,000 mg/l
- Toxicity to fish LC50 (Lepomis macrochirus): 1,300 mg/l
- LD50 Oral - rat (rat): 5,660 mg/kg
- LD50 Dermal - rabbit (rabbit): 2,700 mg/kg
- dermal LD50 in rabbits (rabbit): 2700 mg/kg
- Toxicity to bacteria LC50 - Pseudomonas putida (Pseudomonas putida): 1,170 mg/l-16 h
- Toxicity to algae IC50 - Desmodesmus subspicatus (green algae) [3]: >100 mg/l-24 h
